Source: patent US12503461B2, “Pesticidally active heterocyclic derivatives with sulfur and sulfoximine containing substituents” (SYNGENTA CROP PROTECTION AG, priority 2019, dated 2025)

What was measured:
Format in all cases: in vivo
[1] = system: Frankliniella occidentalis (Western Flower Thrips); assay: Example B3: Frankliniella occidentalis (western flower thrips), sprayed sunflower leaf discs; conditions: foliar, 168 h, application rate of 200 ppm, population of mixed ages, 7 days after infestation
Protocol: Example B3: Frankliniella occidentalis (Western Flower Thrips
Sunflower leaf discs were placed on agar in 24-well microtiter plates and sprayed with aqueous test solutions prepared from […] stock solutions. After drying the leaf discs were infested with a Frankliniella population of mixed ages. The samples were assessed for mortality 7 days after infestation.

[2] = system: Plutella xylostella (Diamond Back Moth); assay: Example B4: Plutella xylostella (diamond back moth), treated artificial diet, eggs; conditions: 192 h, application rate of 200 ppm, 8 days after infestation, in comparison to untreated samples, read-out: effect in at least one of the two categories (mortality or growth inhibition)
Protocol: Example B4: Plutella xylostella (Diamond Back Moth
24-well microtiter plates with artificial diet were treated with aqueous test solutions prepared from 10′000 ppm DMSO stock solutions by pipetting. After drying, Plutella eggs were pipetted through a plastic stencil onto a gel blotting paper and the plate was closed with it. The samples were assessed for mortality and growth inhibition in comparison to untreated samples 8 days after infestation.

[3] = system: Spodoptera littoralis (Egyptian Cotton Leaf Worm); assay: Example B7: Spodoptera littoralis (Egyptian cotton leaf worm), sprayed cotton leaf discs, L1 larvae; conditions: foliar, 72 h, application rate of 200 ppm, 3 days after infestation, in comparison to untreated samples
Protocol: Example B7: Spodoptera littoralis (Egyptian Cotton Leaf Worm
Cotton leaf discs were placed onto agar in 24-well microtiter plates and sprayed with aqueous test solutions prepared from 10′000 ppm DMSO stock solutions. After drying the leaf discs were infested with five L1 larvae. The samples were assessed for mortality, anti-feeding effect, and growth inhibition in comparison to untreated samples 3 days after infestation. Control of Spodoptera littoralis by a test sample is given when at least one of the categories mortality, anti-feedant effect, and growth inhibition is higher than the untreated sample.

[4] = system: Diabrotica balteata (Corn Root Worm); assay: Example B1: Diabrotica balteata (corn root worm), sprayed maize sprouts on agar, L2 larvae; conditions: 96 h, application rate of 200 ppm, 4 days after infestation, in comparison to untreated samples, read-out: effect in at least one of the two categories (mortality or growth inhibition)
Protocol: Example B1: Diabrotica balteata (Corn Root Worm
Maize sprouts placed onto an agar layer in 24-well microtiter plates were treated with aqueous test solutions prepared from 10′000 ppm DMSO stock solutions by spraying. After drying, the plates were infested with L2 larvae (6 to 10 per well). The samples were assessed for mortality and growth inhibition in comparison to untreated samples 4 days after infestation.

[5] = system: Euschistus heros (Neotropical Brown Stink Bug); assay: Example B2: Euschistus heros (neotropical brown stink bug), sprayed soybean leaves, N2 nymphs; conditions: 120 h, application rate of 200 ppm, 5 days after infestation, in comparison to untreated samples, read-out: effect in at least one of the two categories (mortality or growth inhibition)
Protocol: Example B2: Euschistus heros (Neotropical Brown Stink Bug
Soybean leaves on agar in 24-well microtiter plates were sprayed with aqueous test solutions prepared from 10′000 ppm DMSO stock solutions. After drying the leaves were infested with N2 nymphs. The samples were assessed for mortality and growth inhibition in comparison to untreated samples 5 days after infestation.

[6] = system: Myzus persicae (Green Peach Aphid); assay: Example B5: Myzus persicae (green peach aphid), feeding/contact activity, sprayed sunflower leaf discs; conditions: foliar, 144 h, application rate of 200 ppm, aphid population of mixed ages, 6 days after infestation
Protocol: Example B5: Myzus persicae (Green Peach Aphid). Feeding/Contact Activity
Sunflower leaf discs were placed onto agar in a 24-well microtiter plate and sprayed with aqueous test solutions prepared from 10′000 ppm DMSO stock solutions. After drying, the leaf discs were infested with an aphid population of mixed ages. The samples were assessed for mortality 6 days after infestation.

CCN=S(=O)(c1ccc2oc(-c3ncc(N=S(C)(C)=O)cc3S(=O)(=O)CC)nc2c1)C(F)(F)F (stereo not shown) [P2, [2-[5-[[dimethyl(oxo)-λ^6-sulfanylidene]amino]-3-ethylsulfonyl-2-pyridyl]-1,3-benzoxazol-5-yl]-ethylimino-oxo-(trifluoromethyl)-λ^6-sulfane]
≥ 80%: mortality at 200 ppm [1] | percent effect (mortality or growth inhibition) at 200 ppm [2] | percent control (mortality, anti-feeding effect or growth inhibition) at 200 ppm [3] | percent effect (mortality or growth inhibition) at 200 ppm [4] | effect (mortality or growth inhibition) at 200 ppm [5]

CCN=S(=O)(c1ccc2oc(-c3ncc(N(C)C(C)=O)cc3S(=O)(=O)CC)nc2c1)C(F)(F)F (stereo not drawn) [P3, N-[5-ethylsulfonyl-6-[5-[N-ethyl-S-(trifluoromethyl)sulfonimidoyl]-1,3-benzoxazol-2-yl]-3-pyridyl]-N-methyl-acetamide]
≥ 80%: percent effect (mortality or growth inhibition) at 200 ppm [2] | mortality at 200 ppm [6] | percent control (mortality, anti-feeding effect or growth inhibition) at 200 ppm [3] | percent effect (mortality or growth inhibition) at 200 ppm [4]

CCS(=O)(=O)c1cc(Oc2ccccn2)cnc1-c1nc2cc(S(=N)(=O)C(F)(F)F)ccc2o1 (stereo not shown) [P9, [2-[3-ethylsulfonyl-5-(2-pyridyloxy)-2-pyridyl]-1,3-benzoxazol-5-yl]-imino-oxo-(trifluoromethyl)-λ^6-sulfane]
≥ 80%: percent effect (mortality or growth inhibition) at 200 ppm [2] | mortality at 200 ppm [6] | percent control (mortality, anti-feeding effect or growth inhibition) at 200 ppm [3] | percent effect (mortality or growth inhibition) at 200 ppm [4] | effect (mortality or growth inhibition) at 200 ppm [5]

CCN=S(=O)(c1ccc2oc(-c3ncc(C4CC4)cc3S(=O)(=O)CC)nc2c1)C(F)(F)F (stereo not shown) [P11, [2-(5-cyclopropyl-3-ethylsulfonyl-2-pyridyl)-1,3-benzoxazol-5-yl]-ethylimino-oxo-(trifluoromethyl)-λ^6-sulfane]
≥ 80%: percent effect (mortality or growth inhibition) at 200 ppm [2] | mortality at 200 ppm [6] | percent control (mortality, anti-feeding effect or growth inhibition) at 200 ppm [3] | percent effect (mortality or growth inhibition) at 200 ppm [4] | effect (mortality or growth inhibition) at 200 ppm [5]

CCS(=O)(=O)c1cccnc1-c1nc2cc(S(=O)(=NC3CC3)C(F)(F)F)ccc2o1 (stereo not shown) [P13, cyclopropylimino-[2-(3-ethylsulfonyl-2-pyridyl)-1,3-benzoxazol-5-yl]-oxo-(trifluoromethyl)-λ^6-sulfane]
≥ 80%: percent effect (mortality or growth inhibition) at 200 ppm [2] | mortality at 200 ppm [6] | percent control (mortality, anti-feeding effect or growth inhibition) at 200 ppm [3] | percent effect (mortality or growth inhibition) at 200 ppm [4]

CCS(=O)(=O)c1cccnc1-c1nc2cc(S(=O)(=NC)C(F)(F)F)ccc2o1 (stereo not shown) [P18, [2-(3-ethylsulfonyl-2-pyridyl)-1,3-benzoxazol-5-yl]-methylimino-oxo-(trifluoromethyl)-λ^6-sulfane]
≥ 80%: percent effect (mortality or growth inhibition) at 200 ppm [2] | mortality at 200 ppm [6] | percent control (mortality, anti-feeding effect or growth inhibition) at 200 ppm [3] | percent effect (mortality or growth inhibition) at 200 ppm [4] | effect (mortality or growth inhibition) at 200 ppm [5]

CCN=S(=O)(c1ccc2oc(-c3ncccc3S(=O)(=O)CC)nc2c1)C(F)(F)F (stereo not shown) [P19, ethylimino-[2-(3-ethylsulfonyl-2-pyridyl)-1,3-benzoxazol-5-yl]-oxo-(trifluoromethyl)-λ^6-sulfane]
≥ 80%: percent effect (mortality or growth inhibition) at 200 ppm [2] | mortality at 200 ppm [6] | percent control (mortality, anti-feeding effect or growth inhibition) at 200 ppm [3] | percent effect (mortality or growth inhibition) at 200 ppm [4] | effect (mortality or growth inhibition) at 200 ppm [5]

CCN=S(=O)(c1ccc2oc(-c3ncc(-c4ncccn4)cc3S(=O)(=O)CC)nc2c1)C(F)(F)F (stereo not shown) [P35, ethylimino-[2-(3-ethylsulfonyl-5-pyrimidin-2-yl-2-pyridyl)-1,3-benzoxazol-5-yl]-oxo-(trifluoromethyl)-λ^6-sulfane]
≥ 80%: percent effect (mortality or growth inhibition) at 200 ppm [2] | percent control (mortality, anti-feeding effect or growth inhibition) at 200 ppm [3] | percent effect (mortality or growth inhibition) at 200 ppm [4] | effect (mortality or growth inhibition) at 200 ppm [5]

CCS(=O)(=O)c1cc(-c2ncccn2)cnc1-c1nc2cc(S(=N)(=O)C(F)(F)F)ccc2o1 (stereo not shown) [P36, [2-(3-ethylsulfonyl-5-pyrimidin-2-yl-2-pyridyl)-1,3-benzoxazol-5-yl]-imino-oxo-(trifluoromethyl)-λ^6-sulfane]
≥ 80%: percent effect (mortality or growth inhibition) at 200 ppm [2] | percent control (mortality, anti-feeding effect or growth inhibition) at 200 ppm [3] | percent effect (mortality or growth inhibition) at 200 ppm [4] | effect (mortality or growth inhibition) at 200 ppm [5]

CCS(=O)(=O)c1cc(-c2ncc(Cl)cn2)cnc1-c1nc2cc(S(=N)(=O)C(F)(F)F)ccc2o1 (stereo not shown) [P42, [2-[5-(5-chloropyrimidin-2-yl)-3-ethylsulfonyl-2-pyridyl]-1,3-benzoxazol-5-yl]-imino-oxo-(trifluoromethyl)-λ^6-sulfane]
≥ 80%: percent effect (mortality or growth inhibition) at 200 ppm [2] | percent control (mortality, anti-feeding effect or growth inhibition) at 200 ppm [3] | percent effect (mortality or growth inhibition) at 200 ppm [4] | effect (mortality or growth inhibition) at 200 ppm [5]

CCS(=O)(=O)c1ccc(-n2cncn2)nc1-c1nc2cc(S(=N)(=O)C(F)(F)F)ccc2n1C (stereo not shown) [P44, [2-[3-ethylsulfonyl-6-(1,2,4-triazol-1-yl)-2-pyridyl]-1-methyl-benzimidazol-5-yl]-imino-oxo-(trifluoromethyl)-λ^6-sulfane]
≥ 80%: percent effect (mortality or growth inhibition) at 200 ppm [2] | mortality at 200 ppm [6] | percent control (mortality, anti-feeding effect or growth inhibition) at 200 ppm [3] | percent effect (mortality or growth inhibition) at 200 ppm [4]

CCN=S(=O)(c1ccc2c(c1)nc(-c1nc(-n3cncn3)ccc1S(=O)(=O)CC)n2C)C(F)(F)F (stereo not shown) [P45, ethylimino-[2-[3-ethylsulfonyl-6-(1,2,4-triazol-1-yl)-2-pyridyl]-1-methyl-benzimidazol-5-yl]-oxo-(trifluoromethyl)-λ^6-sulfane]
≥ 80%: percent effect (mortality or growth inhibition) at 200 ppm [2] | mortality at 200 ppm [6] | percent control (mortality, anti-feeding effect or growth inhibition) at 200 ppm [3] | percent effect (mortality or growth inhibition) at 200 ppm [4]

CCS(=O)(=O)c1cc(Oc2ccccn2)cnc1-c1nc2cc(S(=N)(=O)C(F)(F)F)ccc2n1C (stereo not shown) [P50, [2-[3-ethylsulfonyl-5-(2-pyridyloxy)-2-pyridyl]-1-methyl-benzimidazol-5-yl]-imino-oxo-(trifluoromethyl)-λ^6-sulfane]
≥ 80%: percent effect (mortality or growth inhibition) at 200 ppm [2] | mortality at 200 ppm [6] | percent control (mortality, anti-feeding effect or growth inhibition) at 200 ppm [3] | percent effect (mortality or growth inhibition) at 200 ppm [4] | effect (mortality or growth inhibition) at 200 ppm [5]

CCN=S(=O)(c1ccc2c(c1)nc(-c1ncc(Oc3ccccn3)cc1S(=O)(=O)CC)n2C)C(F)(F)F (stereo not shown) [P51, ethylimino-[2-[3-ethylsulfonyl-5-(2-pyridyloxy)-2-pyridyl]-1-methyl-benzimidazol-5-yl]-oxo-(trifluoromethyl)-λ^6-sulfane]
≥ 80%: percent effect (mortality or growth inhibition) at 200 ppm [2] | mortality at 200 ppm [6] | percent control (mortality, anti-feeding effect or growth inhibition) at 200 ppm [3] | percent effect (mortality or growth inhibition) at 200 ppm [4] | effect (mortality or growth inhibition) at 200 ppm [5]

CCS(=O)(=O)c1cc(-c2ncc(C#N)cn2)cnc1-c1nc2cc(S(=N)(=O)C(F)(F)F)ccc2n1C (stereo not shown) [P52, 2-[5-ethylsulfonyl-6-[1-methyl-5-(trifluoromethylsulfonimidoyl)benzimidazol-2-yl]-3-pyridyl]pyrimidine-5-carbonitrile]
≥ 80%: percent effect (mortality or growth inhibition) at 200 ppm [2] | mortality at 200 ppm [6] | percent control (mortality, anti-feeding effect or growth inhibition) at 200 ppm [3] | percent effect (mortality or growth inhibition) at 200 ppm [4] | effect (mortality or growth inhibition) at 200 ppm [5]

CCN=S(=O)(c1ccc2c(c1)nc(-c1ncc(-c3ncc(C#N)cn3)cc1S(=O)(=O)CC)n2C)C(F)(F)F (stereo not drawn) [P53, 2-[5-ethylsulfonyl-6-[5-[N-ethyl-S-(trifluoromethyl)sulfonimidoyl]-1-methyl-benzimidazol-2-yl]-3-pyridyl]pyrimidine-5-carbonitrile]
≥ 80%: percent effect (mortality or growth inhibition) at 200 ppm [2] | mortality at 200 ppm [6] | percent control (mortality, anti-feeding effect or growth inhibition) at 200 ppm [3] | percent effect (mortality or growth inhibition) at 200 ppm [4] | effect (mortality or growth inhibition) at 200 ppm [5]
